Measured values published in patent US12077537B2 (Gilead Sciences, Inc., priority 2020, dated 2024).

System: HIV-IIIb
Assay: Antiviral assay in MT4 cells
Assay type: cell-based
Settings: Human immunodeficiency virus 1, MT4, 120 h; MT-4 cells mixed with HIV-IIIb at m.o.i. 0.003; 5 days at 37° C.; CellTiter-Glo luminescence; 50% decrease in signal, a measure of HIV-1 replication
Procedure, shortened: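 Compound, tested at ten 3-fold dilutions in quadruplicate in 10% FBS medium, received MT-4 cells pre-mixed 1 hour with HIV-IIIb (m.o.i. 0.003). Protection was read as luminescent cell viability (CellTiter-Glo) after 5 days' culture at 37° C.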

SMILES	EC50 [nM]
Cc1nc2nc([C@H](Cc3cc(F)cc(F)c3)NC(=O)Cn3nc(C(F)(F)F)c4c3C(F)(F)[C@@H]3C[C@H]43)c(-c3ccc(Cl)c4c(NS(C)(=O)=O)nn(C)c34)cc2[nH]1 [Example 100, N—((S)-1-(6-(4-chloro-1-methyl-3-(methylsulfonamido)-1H-indazol-7-yl)-2-methyl-1H-imidazo[4,5-b]pyridin-5-yl)-2-(3,5-difluorophenyl)ethyl)-2-((3bS,4aR)-5,5-difluoro-3-(trifluoromethyl)-3b,4,4a,5-tetrahydro-1H-cyclopropa[3,4]cyclopenta[1,2-c]pyrazol-1-yl)acetamide]	2.4
COCc1nc2nc([C@H](Cc3cc(F)cc(F)c3)NC(=O)Cn3nc(C(F)(F)F)c4c3C(F)(F)[C@@H]3C[C@H]43)c(-c3ccc(Cl)c4c(NS(C)(=O)=O)nn(C)c34)cc2[nH]1 [Example 101, N—((S)-1-(6-(4-chloro-1-methyl-3-(methylsulfonamido)-1H-indazol-7-yl)-2-(methoxymethyl)-1H-imidazo[4,5-b]pyridin-5-yl)-2-(3,5-difluorophenyl)ethyl)-2-((3bS,4aR)-5,5-difluoro-3-(trifluoromethyl)-3b,4,4a,5-tetrahydro-1H-cyclopropa[3,4]cyclopenta[1,2-c]pyrazol-1-yl)acetamide]	2.1
COCc1nc2nc([C@H](Cc3cc(F)cc(F)c3)NC(=O)Cn3nc(C(F)F)c4c3C(F)(F)[C@@H]3C[C@H]43)c(-c3ccc(Cl)c4c(NS(C)(=O)=O)nn(C)c34)cc2[nH]1 [Example 102, N—((S)-1-(6-(4-chloro-1-methyl-3-(methylsulfonamido)-1H-indazol-7-yl)-2-(methoxymethyl)-1H-imidazo[4,5-b]pyridin-5-yl)-2-(3,5-difluorophenyl)ethyl)-2-((3bS,4aR)-3-(difluoromethyl)-5,5-difluoro-3b,4,4a,5-tetrahydro-1H-cyclopropa[3,4]cyclopenta[1,2-c]pyrazol-1-yl)acetamide]	1.5
COCc1nc2nc([C@H](Cc3cc(F)cc(F)c3)NC(=O)Cn3nc(C(F)F)c4c3C(F)(F)[C@@H]3C[C@H]43)c(-c3ccc(Cl)c4c(N)nn(C)c34)cc2[nH]1 [Example 103, N—((S)-1-(6-(3-amino-4-chloro-1-methyl-1H-indazol-7-yl)-2-(methoxymethyl)-1H-imidazo[4,5-b]pyridin-5-yl)-2-(3,5-difluorophenyl)ethyl)-2-((3bS,4aR)-3-(difluoromethyl)-5,5-difluoro-3b,4,4a,5-tetrahydro-1H-cyclopropa[3,4]cyclopenta[1,2-c]pyrazol-1-yl)acetamide]	5.9
CC(C)c1nc2nc([C@H](Cc3cc(F)cc(F)c3)NC(=O)Cn3nc(C(F)F)c4c3C(F)(F)[C@@H]3C[C@H]43)c(-c3ccc(Cl)c4c(NS(C)(=O)=O)nn(C)c34)cc2[nH]1 [Example 104, N—((S)-1-(6-(4-chloro-1-methyl-3-(methylsulfonamido)-1H-indazol-7-yl)-2-isopropyl-TH-imidazo[4,5-b]pyridin-5-yl)-2-(3,5-difluorophenyl)ethyl)-2-((3bS,4aR)-3-(difluoromethyl)-5,5-difluoro-3b,4,4a,5-tetrahydro-TH-cyclopropa[3,4]cyclopenta[1,2-c]pyrazol-1-yl)acetamide]	4.4
Cn1nc(NS(C)(=O)=O)c2c(Cl)ccc(-c3cc4nc(C5CC5)oc4nc3[C@H](Cc3cc(F)cc(F)c3)NC(=O)Cn3nc(C(F)F)c4c3C(F)(F)[C@@H]3C[C@H]43)c21 [Example 110, N—((S)-1-(6-(4-chloro-1-methyl-3-(methylsulfonamido)-1H-indazol-7-yl)-2-cyclopropyloxazolo[5,4-b]pyridin-5-yl)-2-(3,5-difluorophenyl)ethyl)-2-((3bS,4aR)-3-(difluoromethyl)-5,5-difluoro-3b,4,4a,5-tetrahydro-1H-cyclopropa[3,4]cyclopenta[1,2-c]pyrazol-1-yl)acetamide]	11.9

Further lines, results first:

EC50 [nM]	SMILES
3.1	Cn1nc(NS(C)(=O)=O)c2c(Cl)ccc(-c3cc4[nH]c(C5CC5)nc4nc3[C@H](Cc3cc(F)cc(F)c3)NC(=O)Cn3nc(C(F)F)c4c3C(F)(F)[C@@H]3C[C@H]43)c21 [Example 97, N—((S)-1-(6-(4-chloro-1-methyl-3-(methylsulfonamido)-1H-indazol-7-yl)-2-cyclopropyl-1H-imidazo[4,5-b]pyridin-5-yl)-2-(3,5-difluorophenyl)ethyl)-2-((3bS,4aR)-3-(difluoromethyl)-5,5-difluoro-3b,4,4a,5-tetrahydro-1H-cyclopropa[3,4]cyclopenta[1,2-c]pyrazol-1-yl)acetamide]
3	Cn1cc(-c2nc3nc([C@H](Cc4cc(F)cc(F)c4)NC(=O)Cn4nc(C(F)F)c5c4C(F)(F)[C@@H]4C[C@H]54)c(-c4ccc(Cl)c5c(NS(C)(=O)=O)nn(C)c45)cc3[nH]2)cn1 [Example 98, N—((S)-1-(6-(4-chloro-1-methyl-3-(methylsulfonamido)-1H-indazol-7-yl)-2-(1-methyl-1H-pyrazol-4-yl)-1H-imidazo[4,5-b]pyridin-5-yl)-2-(3,5-difluorophenyl)ethyl)-2-((3bS,4aR)-3-(difluoromethyl)-5,5-difluoro-3b,4,4a,5-tetrahydro-1H-cyclopropa[3,4]cyclopenta[1,2-c]pyrazol-1-yl)acetamide]
1.6	Cc1nc2nc([C@H](Cc3cc(F)cc(F)c3)NC(=O)Cn3nc(C(F)F)c4c3C(F)(F)[C@@H]3C[C@H]43)c(-c3ccc(Cl)c4c(NS(C)(=O)=O)nn(C)c34)cc2[nH]1 [Example 99, N—((S)-1-(6-(4-chloro-1-methyl-3-(methylsulfonamido)-1H-indazol-7-yl)-2-methyl-1H-imidazo[4,5-b]pyridin-5-yl)-2-(3,5-difluorophenyl)ethyl)-2-((3bS,4aR)-3-(difluoromethyl)-5,5-difluoro-3b,4,4a,5-tetrahydro-1H-cyclopropa[3,4]cyclopenta[1,2-c]pyrazol-1-yl)acetamide]
4.9	Cn1nc(NS(C)(=O)=O)c2c(Cl)ccc(-c3cc4[nH]c(C(C)(C)O)nc4nc3[C@H](Cc3cc(F)cc(F)c3)NC(=O)Cn3nc(C(F)F)c4c3C(F)(F)[C@@H]3C[C@H]43)c21 [Example 105, N—((S)-1-(6-(4-chloro-1-methyl-3-(methylsulfonamido)-1H-indazol-7-yl)-2-(2-hydroxypropan-2-yl)-1H-imidazo[4,5-b]pyridin-5-yl)-2-(3,5-difluorophenyl)ethyl)-2-((3bS,4aR)-3-(difluoromethyl)-5,5-difluoro-3b,4,4a,5-tetrahydro-1H-cyclopropa[3,4]cyclopenta[1,2-c]pyrazol-1-yl)acetamide]
6.4	Cn1nc(NS(C)(=O)=O)c2c(Cl)ccc(-c3cc4[nH]c(C(C)(C)O)nc4nc3[C@H](Cc3cc(F)cc(F)c3)NC(=O)Cn3nc(C(F)(F)F)c4c3C(F)(F)[C@@H]3C[C@H]43)c21 [Example 106, N—((S)-1-(6-(4-chloro-1-methyl-3-(methylsulfonamido)-1H-indazol-7-yl)-2-(2-hydroxypropan-2-yl)-1H-imidazo[4,5-b]pyridin-5-yl)-2-(3,5-difluorophenyl)ethyl)-2-((3bS,4aR)-5,5-difluoro-3-(trifluoromethyl)-3b,4,4a,5-tetrahydro-1H-cyclopropa[3,4]cyclopenta[1,2-c]pyrazol-1-yl)acetamide]
42.2	Cn1nc(NS(C)(=O)=O)c2c(Cl)ccc(-c3cc4c(nc3[C@H](Cc3cc(F)cc(F)c3)NC(=O)Cn3nc(C(F)(F)F)c5c3C(F)(F)[C@@H]3C[C@H]53)NCC(=O)N4)c21 [Example 107, N—((S)-1-(7-(4-chloro-1-methyl-3-(methylsulfonamido)-1H-indazol-7-yl)-2-oxo-1,2,3,4-tetrahydropyrido[2,3-b]pyrazin-6-yl)-2-(3,5-difluorophenyl)ethyl)-2-((3bS,4aR)-5,5-difluoro-3-(trifluoromethyl)-3b,4,4a,5-tetrahydro-1H-cyclopropa[3,4]cyclopenta[1,2-c]pyrazol-1-yl)acetamide]
34.5	Cn1nc(NS(C)(=O)=O)c2c(Cl)ccc(-c3cc4c(nc3[C@H](Cc3cc(F)cc(F)c3)NC(=O)Cn3nc(C(F)F)c5c3C(F)(F)[C@@H]3C[C@H]53)NCC(=O)N4)c21 [Example 108, N—((S)-1-(7-(4-chloro-1-methyl-3-(methylsulfonamido)-1H-indazol-7-yl)-2-oxo-1,2,3,4-tetrahydropyrido[2,3-b]pyrazin-6-yl)-2-(3,5-difluorophenyl)ethyl)-2-((3bS,4aR)-3-(difluoromethyl)-5,5-difluoro-3b,4,4a,5-tetrahydro-1H-cyclopropa[3,4]cyclopenta[1,2-c]pyrazol-1-yl)acetamide]
36.8	Cn1nc(NS(C)(=O)=O)c2c(Cl)ccc(-c3cc4[nH]c(=O)[nH]c4nc3[C@H](Cc3cc(F)cc(F)c3)NC(=O)Cn3nc(C(F)F)c4c3C(F)(F)[C@@H]3C[C@H]43)c21 [Example 109, N—((S)-1-(6-(4-chloro-1-methyl-3-(methylsulfonamido)-1H-indazol-7-yl)-2-oxo-2,3-dihydro-1H-imidazo[4,5-b]pyridin-5-yl)-2-(3,5-difluorophenyl)ethyl)-2-((3bS,4aR)-3-(difluoromethyl)-5,5-difluoro-3b,4,4a,5-tetrahydro-1H-cyclopropa[3,4]cyclopenta[1,2-c]pyrazol-1-yl)acetamide]
156	CC1(O)CN(c2nc3cc(-c4ccc(F)c(C(N)=O)c4)c([C@H](Cc4cc(F)cc(F)c4)NC(=O)Cn4nc(C(F)(F)F)c5c4C(F)(F)[C@@H]4C[C@H]54)nc3o2)C1 [Example 111, 5-(5-((S)-1-(2-((3bS,4aR)-5,5-difluoro-3-(trifluoromethyl)-3b,4,4a,5-tetrahydro-1H-cyclopropa[3,4]cyclopenta[1,2-c]pyrazol-1-yl)acetamido)-2-(3,5-difluorophenyl)ethyl)-2-(3-hydroxy-3-methylazetidin-1-yl)oxazolo[5,4-b]pyridin-6-yl)-2-fluorobenzamide]
